Experimental data from paper PMC9241695, “Selective Metal Chelation by a Thiosemicarbazone Derivative Interferes with Mitochondrial Respiration and Ribosome Biogenesis in Candida albicans” (Microbiology Spectrum, 2022).
In brackets after ≈: the same amount, converted by molar mass. Where two headings read alike, the source gives them in different places.

Experiments:
C. albicans SC5314 [1] = experiment: Antifungal susceptibility testing, microbroth dilution MIC; assay type: cell-based; details: Candida albicans, read-out: MIC (μg/mL) against fungi SC5314
Source text: (§1) Compound library. The thiosemicarbazone derivatives Triapine and COTI-2 were purchased from Med Chem Express (MCE). The other 87 thiosemicarbazones used in this study were previously synthesized by our collaborators (1, 2). Their structures are shown in Table 1 and Table S1 to help the reader clearly understand the relationship between structure and activity.
(§2) Strains and culture conditions. Clinically derived C. albicans isolates, including G5, F5, and Gu5, were kindly provided by Professor Joachim Morschhäuser of the University of Würzburg. Other clinical C. albicans isolates were kindly donated by Professor Qingguo Qi of Shandong University and Qianfoshan Hospital of Shandong Province Other Candida strains were obtained from Jinan Central Hospital.
(§3) The zap1 mutant and its complemented strain were kindly provided by Professor Aaron P. Mitchell of Carnegie Mellon University (3). The C. neoformans strains used in this study was kindly donated by Professor Guojian Liao of Southwest University and A. fumigatus strain used in this study was provided by Professor Ling Lu of Nanjing Normal University. Before in vitro and in vivo experiments, all C. albicans strains were grown on YPD agar plates. After culturing at 30°C for 24 h, colonies of each strain were cultured in liquid YPD medium at 30°C with continuous shaking […]
(§4) Antifungal susceptibility testing. To determine in vitro antifungal activities, the microbroth dilution method was carried out in RPMI1640 medium according to the guidelines of the Clinical and Laboratory Standards Institute (4, 5). The initial concentration in RPMI1640 medium was 1 × 10^3 CFU/mL for the C. albicans and C. neoformans suspensions but 1 × 10^4 CFU/mL for A. fumigatus. The range of final drug concentrations was 0.0156–64 μg/mL. The plates were incubated at35°C for 24 […]
(§5) h (for C. albicans, C. krusei, C. tropicalis, C. parapsilosis) or 48 h (for C. neoformans, A. fumigatus). The MIC was determined based on visible growth inhibition compared with the control. All experiments were performed in duplicate. […]

A. fumigatus AF293 = experiment: as above; assay type: cell-based; details: Aspergillus fumigatus, read-out: MIC (μg/mL) against fungi AF293
Source text: as §1, §2
(§6) The zap1 mutant and its complemented strain were kindly provided by Professor Aaron P. Mitchell of Carnegie Mellon University (3). The C. neoformans strains used in this study was kindly donated by Professor Guojian Liao of Southwest University and A. fumigatus strain used in this study was provided by Professor Ling Lu of Nanjing Normal University. […]
as §4, §5

C. neoformans H99 = experiment: as above; assay type: cell-based; details: Cryptococcus neoformans, read-out: MIC (μg/mL) against fungi H99
Source text: as §1, §2, §6, §4, §5

C. albicans SC5314 [2] = experiment: qPCR of genes associated with ribosome biogenesis; assay type: cell-based, Candida albicans; details: CPX 0.5 or 2 μg/mL 8 h; DFO 64 µg/mL 6 h; TPEN 0.05 or 0.2 μg/mL 6 h
Description: Determination of SOD activity. SOD activity was measured using the Superoxide Dismutase Activity Assay Kit (Njjcbio, Nanjing, China) following the manufacturer's instructions. An overnight culture of C. albicans SC5314 was adjusted to 1 × 10^7 cells/mL with RPMI1640 medium and treated with 19ak at a final concentration of 0, 0.125, 0.25, 0.5, or 1 μg/mL for 6 h. After collection by centrifugation, the cells were broken by glass beads in extraction buffer and centrifuged at 4°C. The absorbance of the supernatant of each sample was measured with a microplate reader at450 nm.
Determination of catalase (CAT) activity. CAT activity was measured by using a Catalase Assay Kit (Solarbio, Beijing, China) following the manufacturer's instructions. An overnight culture of C. albicans SC5314 was adjusted to 1 × 10^6 cells/mL with RPMI1640 medium and treated as described above for SOD activity.
The decomposition of H2O2 is directly accompanied by a decrease in absorbance at 240 nm, and the difference in absorbance per unit time (ΔA240) is a measure of […]
Quantitative real-time polymerase chain reaction (qPCR) analysis. C. albicans SC5314 cells (1 × 10^6 cells/mL) were incubated with or without 19ak (0.5,2 […]
Total RNA was extracted using the hot phenol method, and the RNA quality was analyzed using a spectrophotometer (Eppendorf, Hamburg, Germany). The RNA was converted to cDNA using a cDNA Reverse
Transcription kit (Accurate Biotechnology, Hunan, China). PCR detection based on SYBR Green was performed on an Eppendorf real-time PCR system (Eppendorf, […]
Drug resistance study. Drug resistance studies were carried out by repeatedly treating C. albicans with an antifungal agent followed by MIC determination using […]

C. albicans G5 = experiment: microbe, parasite or virus in culture; assay type: cell-based; details: Candida albicans, G5
Source text: as §1, §2, §3, §4, §5

C. albicans Gu5 = experiment: microbe, parasite or virus in culture; assay type: cell-based; details: Candida albicans, GU5
Source text: as §1, §2, §3, §4, §5

A. fumigatus 1161 = experiment: Microbroth dilution MIC80; assay type: cell-based; details: Aspergillus fumigatus, 1161
Source text: as §1, §2, §3, §4, §5

C. albicans 11e = experiment: Microbroth dilution MIC80; assay type: cell-based; details: Candida albicans, 11E
Source text: as §1, §2, §3, §4, §5

C. albicans 11f = experiment: Microbroth dilution MIC80; assay type: cell-based; details: Candida albicans, 11F
Source text: as §1, §2, §3, §4, §5

C. albicans 24g = experiment: Microbroth dilution MIC80; assay type: cell-based; details: Candida albicans, 24G
Source text: as §1, §2, §3, §4, §5

C. albicans 28A = experiment: Microbroth dilution MIC80; assay type: cell-based; details: Candida albicans, 28A
Source text: as §1, §2, §3, §4, §5

C. albicans 28D = experiment: Microbroth dilution MIC80; assay type: cell-based; details: Candida albicans, 28D
Source text: as §1, §2, §3, §4, §5

C. albicans 28I = experiment: Microbroth dilution MIC80; assay type: cell-based; details: Candida albicans, 28I
Source text: as §1, §2, §3, §4, §5

C. albicans CA1 = experiment: Microbroth dilution MIC80; assay type: cell-based; details: Candida albicans, CA1
Source text: as §1, §2, §3, §4, §5

C. albicans CA3 = experiment: Microbroth dilution MIC80; assay type: cell-based; details: Candida albicans, CA3
Source text: as §1, §2, §3, §4, §5

C. albicans CA4 = experiment: Microbroth dilution MIC80; assay type: cell-based; details: Candida albicans, CA4
Source text: as §1, §2, §3, §4, §5

C. albicans DSY654 = experiment: Microbroth dilution MIC80; assay type: cell-based; details: Candida albicans
Source text: as §1, §2, §3, §4, §5

C. albicans F5 = experiment: Microbroth dilution MIC80; assay type: cell-based; details: Candida albicans, F5
Source text: as §1, §2, §3, §4, §5

C. albicans YEM13 = experiment: Microbroth dilution MIC80; assay type: cell-based; details: Candida albicans
Source text: as §1, §2, §3, §4, §5

C. albicans YEM15 = experiment: Microbroth dilution MIC80; assay type: cell-based; details: Candida albicans, YEM15
Source text: as §1, §2, §3, §4, §5

C. neoformans 108 = experiment: Microbroth dilution MIC80; assay type: cell-based; details: Cryptococcus neoformans, 108
Source text: as §1, §2, §3, §4, §5

C. tropicalis CT2 = experiment: Microbroth dilution MIC80; assay type: cell-based; details: Candida tropicalis, CT2
Source text: as §1, §2, §3, §4, §5

C. krusei CK1 = experiment: Microbroth dilution MIC80; assay type: cell-based, Candida krusei; details: Pichia kudriavzevii, CK1
Source text: as §1, §2, §3, §4, §5

C. parapsilosis CP001 = experiment: Microbroth dilution MIC80; assay type: cell-based, Candida parapsilosis; details: Lodderomyces parapsilosis, CP001
Source text: as §1, §2, §3, §4, §5

[3] = Cytotoxicity testing (MTT); assay type: cell-based, human; details: human, 48 h, MTT
Description: (§7) h (for C. albicans, C. krusei, C. tropicalis, C. parapsilosis) or 48 h (for C. neoformans, A. fumigatus). The MIC was determined based on visible growth inhibition compared with the control. All experiments were performed in duplicate.
(§8) Cytotoxicity testing. The cell lines HK2 and 16HBE were used to evaluate the cytotoxicity of 19ak, 19k and 19t. Cells in DMEM containing 10% fetal bovine serum (Gibco) were seeded in 96-well tissue culture plates at a cell density of 1 × 10^4 cells/mL and incubated for 24 h to allow adhesion. The supernatant was then replaced with fresh DMEM containing various concentrations of 19ak, 19k and 19t. The plates were subsequently incubated for an additional 48 h at 37°C with 5% CO2, followed by the addition of 10 μL of MTT solution to each well and incubation at 37°C for 4 h.
(§9) The effects of the compounds on cell proliferation were detected by measuring the absorbance at 570 nm in a microplate reader (BioTek, VT, USA). Three independent experiments were conducted. […]

[4] = tested on: human bronchial epithelial cell line 16HBE; experiment: Cytotoxicity testing (MTT); assay type: cell-based; details: ratio of IC50 against 16HBE to MIC80 against C. albicans SC5314
Description: as §7, §8, §9

[5] = tested on: human renal epithelial cell line HK2; experiment: Cytotoxicity testing (MTT); assay type: cell-based; details: ratio of IC50 against HK2 to MIC80 against C. albicans SC5314
Description: as §7, §8, §9

[6] = Cytotoxicity testing (MTT); assay type: cell-based, human; details: human, HepG2 cells (hepatocellular carcinoma cell line)
[7] = tested on: human hepatocellular carcinoma cell line HepG2; experiment: Cytotoxicity testing (MTT); assay type: cell-based; details: ratio of IC50 against HepG2 to MIC80 against C. albicans SC5314
C. albicans SC5314 [8] = experiment: Minimal fungicidal concentration (MFC); assay type: cell-based; details: Candida albicans, read-out: MFC against C. albicans SC5314
[9] = SC5314, C. albicans wild-type strain, RPMI1640, 35°C, 24 h
[10] = AF293, standard strain of A. fumigatus, 48 h
[11] = H99, C. neoformans wild-type strain, 48 h

S=C(N/N=C(\c1ccccc1)c1ccccn1)Nc1ccccc1Br [Compound 19x]
MIC (C. albicans SC5314 [1]; SC5314, 24 h): 1 µg/mL (≈ 2.43 µM)
MIC (A. fumigatus AF293; AF293, 48 h): 16 µg/mL (≈ 38.9 µM)
MIC (C. neoformans H99; H99, 48 h): 0.5 µg/mL (≈ 1.22 µM)

NC(=S)NN=Cc1ncccc1N [Triapine, 3-aminopyridine-2-carboxaldehyde thiosemicarbazone, reference compound]
MIC (C. albicans SC5314 [1]; [9]): 32 µg/mL (≈ 164 µM)
MIC (A. fumigatus AF293; [10]): 32 µg/mL (≈ 164 µM)
MIC (C. neoformans H99; [11]): 4 µg/mL (≈ 20.5 µM)

C/C(=N\NC(=S)Nc1ccccc1)c1ccccn1 [Compound 19ac]
MIC (C. albicans SC5314 [1]; SC5314, 24 h): 2 µg/mL (≈ 7.4 µM)
MIC (A. fumigatus AF293; AF293, 48 h): 16 µg/mL (≈ 59.2 µM)
MIC (C. neoformans H99; H99, 48 h): 0.25 µg/mL (≈ 0.925 µM)

CC(=O)N(O)CCCCCNC(=O)CCC(=O)N(O)CCCCCNC(=O)CCC(=O)N(O)CCCCCN [DFO, deferoxamine]
Expression of genes associated with ribosome biogenesis (qPCR) (C. albicans SC5314 [2]): minor effects

C/C(=N\NC(=S)Nc1cccc(Br)c1)c1ccccn1 [Compound 19q]
MIC (C. albicans SC5314 [1]; SC5314, 24 h): 0.5 µg/mL (≈ 1.43 µM)
MIC (A. fumigatus AF293; AF293, 48 h): 1 µg/mL (≈ 2.86 µM)
MIC (C. neoformans H99; H99, 48 h): 0.25 µg/mL (≈ 0.716 µM)

C/C(=N\NC(=S)Nc1ccc(Br)cc1)c1ccccn1 [Compound 19t]
MIC (C. albicans SC5314 [1]; [9]): 0.5 µg/mL (≈ 1.43 µM)
MIC (A. fumigatus AF293; [10]): 0.125 µg/mL (≈ 0.358 µM)
MIC (C. neoformans H99; [11]): 0.031 µg/mL (≈ 0.0888 µM)
MIC80 (C. albicans G5): 1 µg/mL (≈ 2.86 µM)
MIC80 (C. albicans Gu5): 1 µg/mL (≈ 2.86 µM)
MIC80 (A. fumigatus 1161): 0.125 µg/mL (≈ 0.358 µM)
MIC80 (C. albicans 11e): 0.5 µg/mL (≈ 1.43 µM)
MIC80 (C. albicans 11f): 0.25 µg/mL (≈ 0.716 µM)
MIC80 (C. albicans 24g): 0.25 µg/mL (≈ 0.716 µM)
MIC80 (C. albicans 28A): 0.25 µg/mL (≈ 0.716 µM)
MIC80 (C. albicans 28D): 0.25 µg/mL (≈ 0.716 µM)
MIC80 (C. albicans 28I): 0.5 µg/mL (≈ 1.43 µM)
MIC80 (C. albicans CA1): 0.25 µg/mL (≈ 0.716 µM)
MIC80 (C. albicans CA3): 0.25 µg/mL (≈ 0.716 µM)
MIC80 (C. albicans CA4): 0.25 µg/mL (≈ 0.716 µM)
MIC80 (C. albicans DSY654): 0.25 µg/mL (≈ 0.716 µM)
MIC80 (C. albicans F5): 0.25 µg/mL (≈ 0.716 µM)
MIC80 (C. albicans YEM13): 1 µg/mL (≈ 2.86 µM)
MIC80 (C. albicans YEM15): 1 µg/mL (≈ 2.86 µM)
MIC80 (C. neoformans 108): 0.031 µg/mL (≈ 0.0888 µM)
MIC80 (C. tropicalis CT2): 0.5 µg/mL (≈ 1.43 µM)
MIC80 (C. krusei CK1): 0.5 µg/mL (≈ 1.43 µM)
MIC80 (C. parapsilosis CP001): 0.5 µg/mL (≈ 1.43 µM)
IC50 at 48 h ([3]; 16HBE cells (bronchial epithelial cell line), 16HBE cells): 1.43 µg/mL (≈ 4.09 µM)
IC50 at 48 h ([3]; HK2 cells (renal epithelial cell line), HK2 cells): 3.46 µg/mL (≈ 9.9 µM)
Selectivity index 16HBE [4]: 2.858
Selectivity index HK2 [5]: 6.918
IC50 [6]: 1.39 µg/mL (≈ 3.98 µM)
Selectivity index HepG2 [7]: 2.778
MFC (C. albicans SC5314 [8]): 64 µg/mL (≈ 183 µM)
